Laboratory results published in patent publication US12729377B2, “RNAi agents and compositions for inhibiting expression of angiopoietin-like 3 (ANGPTL3), and methods of use” (Arrowhead Pharmaceuticals, Inc., priority 2017, dated 2026).
In the oligonucleotide strings, read from the 5' end, every base follows the letter of its sugar. An asterisk marks phosphorothioate; unmarked linkages are phosphodiester. Other units and linkages are bracketed, terminal groups are in braces. A string of capitals states the bases alone. {NAG37} = tridentate N-acetyl-galactosamine targeting ligand, structure (NAG37)s; [invAb] = inverted abasic unit; m = 2'-O-methyl; f = 2'-fluoro

Experiments:
ANGPTL3 gene [1] = test: Example 2: serum HDL in mice; assay type: in vivo
Procedure: (§1) To assess the in vivo activity of ANGPTL3 RNAi agents that are designed to target different positions on the ANGPTL3 gene, six- to eight-week-old female C57bl/6 mice were used. Pre-dose serum samples were taken at day −1 after a four hour fast. At day 1, each mouse was given a single subcutaneous administration of 200 μl containing either 3 mg/kg (mpk) of an ANGPTL3 RNAi agent in D5W (dextrose in 5% water), or control (D5W) with no RNAi agent, according to the dosing groups recited in Table 7.
(§2) Each of the RNAi agents included a modified sequence and an N-acetyl-galactosamine-containing targeting ligand conjugated to the 5′ terminal end of the sense strand. (See Tables 3, 4, and 5 for modified sequences and targeting ligand structures). The injections were performed between the skin and muscle (i.e. subcutaneous injections) into the loose skin over the neck and shoulder area. Three (3) mice in each group were tested (n=3). Serum was collected on days 8, […], 22, 29, and day 36 (for Groups 1 and 5-11 only). Mice were fasted for four hours prior to each collection. ANGPTL3 protein levels in serum were measured by ELISA assay (R&D Systems), according to the manufacturer's recommendations. Triglycerides, high-density lipoprotein (HDL), and total cholesterol in serum were measured on a Cobas® Integra 400 (Roche Diagnostics), according to the manufacturer's recommendations.
(§3) The ANGPTL3 protein levels, triglyceride levels, HDL levels, and total cholesterol levels for each animal were normalized. For normalization, the level of ANGPTL3 protein, triglyceride, HDL, and total cholesterol, respectively, for each animal at a time point, was divided by the pre-treatment level of expression in that animal (in this case at day −1) to determine the ratio of expression “normalized to pre-treatment.” Expression at a specific time point was then normalized to the D5W control group by dividing the “normalized to pre-treatment” ratio for an individual animal by the mean “normalized to pretreatment” ratio of all mice in the D5W control group.

ANGPTL3 gene [2] = test: Example 2: serum triglycerides in mice; assay type: in vivo
Procedure: as §1, §2, §3

ANGPTL3 protein = test: Example 2: serum ANGPTL3 protein by ELISA in mice; assay type: in vivo, C57bl/6 mice; details: for Avg ANGPTL3 (Average ANGPTL3 Protein Normalized to Pre-Treatment and Control): 3.0 mg/kg single subcutaneous dose on day 1, serum, female C57bl/6 mice
Procedure: as §1, §2, §3

ANGPTL3 gene [3] = test: Example 2: serum total cholesterol in mice; assay type: in vivo
Procedure: as §1, §2, §3

[4] = Day 8, 3.0 mg/kg single subcutaneous dose on day 1, female C57bl/6 mice
[5] = Day 13, 3.0 mg/kg single subcutaneous dose on day 1, female C57bl/6 mice
[6] = Day 22, 3.0 mg/kg single subcutaneous dose on day 1, female C57bl/6 mice
[7] = Day 29, 3.0 mg/kg single subcutaneous dose on day 1, female C57bl/6 mice
[8] = Day 36, 3.0 mg/kg single subcutaneous dose on day 1, female C57bl/6 mice
[9] = day 29, single 3 mg/kg subcutaneous, C57bl/6 mice

AD05308: RNAi agent duplex: antisense AM07003-AS, sense AM07002-SS (chain 1 mU*fG*mU*fUmGfAmAfUmUfAmAfUmGfUmCfCmAfUmGfG*mA; chain 2 {NAG37}*[invAb]*mUmCmCmAmUmGmGmAfCfAfUmUmAmAmUmUmCmAmAmCmA*[invAb])
Avg HDL (Average HDL Normalized to Pre-Treatment and Control) (ANGPTL3 gene [1]; [4]): 0.634 | Avg HDL (Average HDL Normalized to Pre-Treatment and Control) (ANGPTL3 gene [1]; [5]): 0.583 | Avg HDL (Average HDL Normalized to Pre-Treatment and Control) (ANGPTL3 gene [1]; [6]): 0.572 | Avg HDL (Average HDL Normalized to Pre-Treatment and Control) (ANGPTL3 gene [1]; [7]): 0.606 | Avg HDL (Average HDL Normalized to Pre-Treatment and Control) (ANGPTL3 gene [1]; [8]): 0.854 | Avg TG (Average Triglycerides Normalized to Pre-Treatment and Control) (ANGPTL3 gene [2]; [4]): 0.375 | Avg TG (Average Triglycerides Normalized to Pre-Treatment and Control) (ANGPTL3 gene [2]; [5]): 0.554 | Avg TG (Average Triglycerides Normalized to Pre-Treatment and Control) (ANGPTL3 gene [2]; [6]): 0.399 | Avg TG (Average Triglycerides Normalized to Pre-Treatment and Control) (ANGPTL3 gene [2]; [7]): 0.473 | Avg TG (Average Triglycerides Normalized to Pre-Treatment and Control) (ANGPTL3 gene [2]; [8]): 0.430 | Avg ANGPTL3 (Average ANGPTL3 Protein Normalized to Pre-Treatment and Control) (ANGPTL3 protein; Day 8): 0.106 | Avg ANGPTL3 (Average ANGPTL3 Protein Normalized to Pre-Treatment and Control) (ANGPTL3 protein; Day 13): 0.076 | Avg ANGPTL3 (Average ANGPTL3 Protein Normalized to Pre-Treatment and Control) (ANGPTL3 protein; Day 22): 0.084 | Avg ANGPTL3 (Average ANGPTL3 Protein Normalized to Pre-Treatment and Control) (ANGPTL3 protein; Day 29): 0.088 | Avg ANGPTL3 (Average ANGPTL3 Protein Normalized to Pre-Treatment and Control) (ANGPTL3 protein; Day 36): 0.167 | ANGPTL3 protein normalized to pre-treatment and control (ANGPTL3 protein; [9]): 0.088 | reduction in ANGPTL3 protein compared to control (ANGPTL3 protein; [9]): approximately 91% | Avg Total Chol (Average Total Cholestrol Normalized to Pre-Treatment and Control) (ANGPTL3 gene [3]; [4]): 0.671 | Avg Total Chol (Average Total Cholestrol Normalized to Pre-Treatment and Control) (ANGPTL3 gene [3]; [5]): 0.645 | Avg Total Chol (Average Total Cholestrol Normalized to Pre-Treatment and Control) (ANGPTL3 gene [3]; [6]): 0.621 | Avg Total Chol (Average Total Cholestrol Normalized to Pre-Treatment and Control) (ANGPTL3 gene [3]; [7]): 0.669 | Avg Total Chol (Average Total Cholestrol Normalized to Pre-Treatment and Control) (ANGPTL3 gene [3]; [8]): 0.905
